doi:10.1101/2021.09.30.462449v1 (biorxiv, 2021)

Assays:
Experiment in all cases: biochemical
Details in all cases: read-out: % inhibition mean (Z'Lyte)
PLK2 = PLK2 (Homo sapiens, UniProt Q9NYY3)
PTK2 (FAK) = PTK2 (FAK) (Homo sapiens, UniProt Q05397)
AKT3 (PKB gamma) = AKT3 (PKB gamma) (Homo sapiens, UniProt Q9Y243)
PLK3 = PLK3 (Homo sapiens, UniProt Q9H4B4)
HCK = HCK (Homo sapiens, UniProt P08631)
MAPK8 (JNK1) = MAPK8 (JNK1) (Homo sapiens, UniProt P45983)
IRAK4 = IRAK4 (Homo sapiens, UniProt Q9NWZ3)
EPHA2 = EPHA2 (Homo sapiens, UniProt P29317)
EGFR (ErbB1) G719S = EGFR (ErbB1) G719S (Homo sapiens, UniProt P00533, G719S)
RAF1 (cRAF) Y340D Y341D = RAF1 (cRAF) Y340D Y341D (Homo sapiens, UniProt P04049, Y340D/Y341D)
HIPK2 = HIPK2 (Homo sapiens, UniProt Q9H2X6)
MAP2K6 (MKK6) = MAP2K6 (MKK6) (Homo sapiens, UniProt P52564)
DYRK4 = DYRK4 (Homo sapiens, UniProt Q9NR20)
TYRO3 (RSE) = TYRO3 (RSE) (Homo sapiens, UniProt Q06418)
FGR = FGR (Homo sapiens, UniProt P09769)
RET Y791F = RET Y791F (Homo sapiens, UniProt P07949, Y791F)
EEF2K = EEF2K (Homo sapiens, UniProt O00418)
KIT = KIT (Homo sapiens, UniProt P10721)
AMPK (A2/B1/G2) = AMPK (A2/B1/G2) (Homo sapiens, UniProt P54646)
CDK2/cyclin A = CDK2/cyclin A (Homo sapiens, UniProt P24941)
[1] = target: EGFR (ErbB1) T790M C797S L858R (Homo sapiens, UniProt P00533, C797S/L858R/T790M)
YES1 = YES1 (Homo sapiens, UniProt P07947)
SRC = SRC (Homo sapiens, UniProt P12931)
Chain of SRC (P12931 whole entry): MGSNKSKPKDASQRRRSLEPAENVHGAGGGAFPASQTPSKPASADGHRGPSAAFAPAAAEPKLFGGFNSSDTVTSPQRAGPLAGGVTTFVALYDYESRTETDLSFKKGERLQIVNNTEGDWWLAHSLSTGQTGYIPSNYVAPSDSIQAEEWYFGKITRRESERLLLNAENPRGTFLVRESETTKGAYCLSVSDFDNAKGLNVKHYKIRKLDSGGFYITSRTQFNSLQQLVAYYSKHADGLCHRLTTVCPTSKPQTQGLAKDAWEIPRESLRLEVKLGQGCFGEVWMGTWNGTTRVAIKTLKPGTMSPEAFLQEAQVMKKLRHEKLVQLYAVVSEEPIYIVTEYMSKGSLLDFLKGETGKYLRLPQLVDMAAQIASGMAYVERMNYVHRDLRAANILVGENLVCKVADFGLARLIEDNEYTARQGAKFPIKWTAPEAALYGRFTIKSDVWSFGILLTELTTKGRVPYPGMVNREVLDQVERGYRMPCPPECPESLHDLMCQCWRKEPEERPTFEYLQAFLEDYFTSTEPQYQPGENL

SRPK1 = SRPK1 (Homo sapiens, UniProt Q96SB4)
Chain of SRPK1 (Q96SB4 whole entry): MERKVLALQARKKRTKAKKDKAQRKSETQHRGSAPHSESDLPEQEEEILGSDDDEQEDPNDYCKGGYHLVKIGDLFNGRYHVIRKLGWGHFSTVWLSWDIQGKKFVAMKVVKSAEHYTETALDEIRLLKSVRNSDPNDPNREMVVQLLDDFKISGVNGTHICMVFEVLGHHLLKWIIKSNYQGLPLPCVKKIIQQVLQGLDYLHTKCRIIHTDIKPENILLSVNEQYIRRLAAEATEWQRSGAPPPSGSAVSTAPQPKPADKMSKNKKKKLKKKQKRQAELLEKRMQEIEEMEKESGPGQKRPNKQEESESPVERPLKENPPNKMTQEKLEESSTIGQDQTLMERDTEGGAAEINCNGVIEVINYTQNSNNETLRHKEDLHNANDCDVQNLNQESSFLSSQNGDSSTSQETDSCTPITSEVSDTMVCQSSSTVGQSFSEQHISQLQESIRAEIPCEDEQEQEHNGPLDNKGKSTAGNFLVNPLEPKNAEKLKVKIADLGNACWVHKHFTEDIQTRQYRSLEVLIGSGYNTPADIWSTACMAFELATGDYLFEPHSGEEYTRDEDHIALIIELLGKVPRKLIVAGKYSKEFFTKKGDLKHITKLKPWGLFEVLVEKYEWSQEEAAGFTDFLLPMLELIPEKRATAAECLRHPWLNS

JAK3 = JAK3 (Homo sapiens, UniProt P52333)
Chain of JAK3 (P52333 whole entry): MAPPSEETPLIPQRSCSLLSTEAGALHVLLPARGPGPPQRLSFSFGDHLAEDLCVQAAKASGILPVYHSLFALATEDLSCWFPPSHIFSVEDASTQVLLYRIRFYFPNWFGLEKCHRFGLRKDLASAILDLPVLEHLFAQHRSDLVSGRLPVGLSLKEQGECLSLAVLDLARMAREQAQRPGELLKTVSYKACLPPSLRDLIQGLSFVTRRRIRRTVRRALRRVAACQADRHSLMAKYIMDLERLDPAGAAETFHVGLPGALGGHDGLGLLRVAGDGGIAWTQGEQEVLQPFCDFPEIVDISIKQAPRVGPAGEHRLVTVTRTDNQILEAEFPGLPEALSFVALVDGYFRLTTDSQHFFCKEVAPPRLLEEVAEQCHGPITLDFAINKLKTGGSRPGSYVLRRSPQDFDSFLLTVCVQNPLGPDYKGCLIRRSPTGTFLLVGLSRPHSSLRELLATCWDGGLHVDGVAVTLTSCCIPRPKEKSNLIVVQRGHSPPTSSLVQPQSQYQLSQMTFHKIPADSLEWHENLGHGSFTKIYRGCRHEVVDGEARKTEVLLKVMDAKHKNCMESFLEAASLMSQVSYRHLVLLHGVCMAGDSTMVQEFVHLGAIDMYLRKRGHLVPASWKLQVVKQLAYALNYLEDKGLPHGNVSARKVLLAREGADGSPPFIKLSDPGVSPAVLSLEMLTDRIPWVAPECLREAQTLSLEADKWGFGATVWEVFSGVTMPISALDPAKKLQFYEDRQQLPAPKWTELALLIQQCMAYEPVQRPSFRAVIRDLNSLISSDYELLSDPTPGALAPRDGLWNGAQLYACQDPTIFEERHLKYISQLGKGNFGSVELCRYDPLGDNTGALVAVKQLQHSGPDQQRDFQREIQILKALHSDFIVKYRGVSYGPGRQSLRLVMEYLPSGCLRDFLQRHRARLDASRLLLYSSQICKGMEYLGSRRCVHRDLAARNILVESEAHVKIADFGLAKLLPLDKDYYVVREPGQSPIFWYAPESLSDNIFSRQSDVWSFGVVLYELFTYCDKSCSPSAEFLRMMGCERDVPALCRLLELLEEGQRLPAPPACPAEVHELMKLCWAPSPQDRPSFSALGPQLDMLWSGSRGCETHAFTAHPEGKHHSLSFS

DAPK3 (ZIPK) = DAPK3 (ZIPK) (Homo sapiens, UniProt O43293)
CDKL5 = CDKL5 (Homo sapiens, UniProt O76039)
PEAK1 = PEAK1 (Homo sapiens, UniProt Q9H792)
Chain of PEAK1 (Q9H792 whole entry): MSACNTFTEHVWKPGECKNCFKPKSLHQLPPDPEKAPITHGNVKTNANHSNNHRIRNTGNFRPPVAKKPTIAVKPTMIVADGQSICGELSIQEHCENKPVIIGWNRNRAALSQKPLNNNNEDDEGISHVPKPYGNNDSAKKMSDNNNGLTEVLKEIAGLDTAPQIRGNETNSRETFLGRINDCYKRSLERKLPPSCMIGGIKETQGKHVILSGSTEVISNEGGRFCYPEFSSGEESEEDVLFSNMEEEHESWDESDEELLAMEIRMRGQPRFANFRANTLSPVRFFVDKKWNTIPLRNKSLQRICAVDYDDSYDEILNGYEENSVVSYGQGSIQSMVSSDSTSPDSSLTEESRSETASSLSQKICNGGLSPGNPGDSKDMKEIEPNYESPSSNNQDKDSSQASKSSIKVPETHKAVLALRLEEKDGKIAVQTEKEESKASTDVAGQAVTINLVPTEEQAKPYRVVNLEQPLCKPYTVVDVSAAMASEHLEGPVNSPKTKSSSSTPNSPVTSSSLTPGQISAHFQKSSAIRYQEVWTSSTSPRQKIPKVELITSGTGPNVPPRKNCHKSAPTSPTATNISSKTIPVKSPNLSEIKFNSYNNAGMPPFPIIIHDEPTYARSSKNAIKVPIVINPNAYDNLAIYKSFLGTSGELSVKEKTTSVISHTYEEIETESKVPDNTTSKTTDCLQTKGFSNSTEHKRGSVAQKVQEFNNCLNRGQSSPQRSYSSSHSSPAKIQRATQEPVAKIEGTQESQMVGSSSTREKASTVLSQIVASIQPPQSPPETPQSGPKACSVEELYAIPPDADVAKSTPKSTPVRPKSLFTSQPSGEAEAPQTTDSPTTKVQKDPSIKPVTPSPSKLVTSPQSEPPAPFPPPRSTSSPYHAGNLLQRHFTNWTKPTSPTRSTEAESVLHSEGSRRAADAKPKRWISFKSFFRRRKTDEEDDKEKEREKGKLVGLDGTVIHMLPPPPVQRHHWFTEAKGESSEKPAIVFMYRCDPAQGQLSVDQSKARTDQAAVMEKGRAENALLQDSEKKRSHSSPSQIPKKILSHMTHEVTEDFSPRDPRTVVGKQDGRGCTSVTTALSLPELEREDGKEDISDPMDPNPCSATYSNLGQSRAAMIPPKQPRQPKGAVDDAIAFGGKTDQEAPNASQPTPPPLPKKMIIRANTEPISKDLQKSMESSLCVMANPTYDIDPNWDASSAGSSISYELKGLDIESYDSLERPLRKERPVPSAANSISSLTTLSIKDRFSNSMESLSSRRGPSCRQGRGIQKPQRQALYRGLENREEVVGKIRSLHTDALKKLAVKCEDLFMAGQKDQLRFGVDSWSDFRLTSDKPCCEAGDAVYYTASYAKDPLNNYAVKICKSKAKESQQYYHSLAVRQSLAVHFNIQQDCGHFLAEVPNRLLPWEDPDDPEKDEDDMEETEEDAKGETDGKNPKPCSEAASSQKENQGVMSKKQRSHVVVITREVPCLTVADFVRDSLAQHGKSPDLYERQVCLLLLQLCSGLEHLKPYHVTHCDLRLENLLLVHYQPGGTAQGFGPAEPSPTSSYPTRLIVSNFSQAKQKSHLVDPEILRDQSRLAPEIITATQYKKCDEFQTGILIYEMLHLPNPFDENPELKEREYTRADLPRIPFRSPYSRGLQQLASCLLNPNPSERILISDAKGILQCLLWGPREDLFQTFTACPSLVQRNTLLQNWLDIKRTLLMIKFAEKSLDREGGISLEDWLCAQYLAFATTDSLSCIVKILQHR

CAMK1D (CaMKI delta) = CAMK1D (CaMKI delta) (Homo sapiens, UniProt Q8IU85)
Chain of CAMK1D (CaMKI delta) (Q8IU85 whole entry): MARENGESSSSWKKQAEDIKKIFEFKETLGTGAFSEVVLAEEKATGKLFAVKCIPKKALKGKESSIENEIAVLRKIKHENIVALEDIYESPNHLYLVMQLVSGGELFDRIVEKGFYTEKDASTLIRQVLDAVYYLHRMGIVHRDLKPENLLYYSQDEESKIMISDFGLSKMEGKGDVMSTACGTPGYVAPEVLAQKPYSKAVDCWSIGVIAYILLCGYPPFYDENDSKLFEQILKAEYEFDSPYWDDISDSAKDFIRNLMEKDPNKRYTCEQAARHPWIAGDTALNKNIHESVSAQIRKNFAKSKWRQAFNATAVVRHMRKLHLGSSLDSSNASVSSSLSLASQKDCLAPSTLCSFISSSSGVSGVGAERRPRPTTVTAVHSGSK

Chain of AKT3 (PKB gamma) (Q9Y243 whole entry): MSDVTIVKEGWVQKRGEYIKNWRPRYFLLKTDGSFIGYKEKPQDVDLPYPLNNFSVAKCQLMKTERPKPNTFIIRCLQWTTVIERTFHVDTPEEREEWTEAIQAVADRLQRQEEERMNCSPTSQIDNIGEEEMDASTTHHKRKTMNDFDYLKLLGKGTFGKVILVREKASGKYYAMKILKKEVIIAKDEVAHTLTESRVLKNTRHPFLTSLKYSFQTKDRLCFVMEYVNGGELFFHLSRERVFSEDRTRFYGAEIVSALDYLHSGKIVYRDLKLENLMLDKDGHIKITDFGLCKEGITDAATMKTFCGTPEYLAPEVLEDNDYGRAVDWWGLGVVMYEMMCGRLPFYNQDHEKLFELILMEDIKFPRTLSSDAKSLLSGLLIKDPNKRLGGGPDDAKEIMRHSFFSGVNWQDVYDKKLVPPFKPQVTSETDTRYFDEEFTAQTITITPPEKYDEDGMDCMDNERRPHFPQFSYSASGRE

COc1ccc2nc3cc(Cl)ccc3c(Nc3cc(CN4CCCC4)c(O)c(CN4CCCC4)c3)c2n1 [Pyronaridine, 4-[(7-Chloro-2-methoxybenzo[b][1,5]naphthyridin-10-yl)amino]-2,6-bis(1-pyrrolidinylmethyl)phenol phosphate (1:4)]
inhibition at 1 µM (PLK2): 5%
inhibition at 1 µM (PTK2 (FAK)): 2%
inhibition at 1 µM (AKT3 (PKB gamma)): 7%
inhibition at 1 µM (PLK3): 28%
inhibition at 1 µM (HCK): 4%
inhibition at 1 µM (MAPK8 (JNK1)): 3%
inhibition at 1 µM (IRAK4): -6%
inhibition at 1 µM (EPHA2): 5%
inhibition at 1 µM (EGFR (ErbB1) G719S): -5%
inhibition at 1 µM (RAF1 (cRAF) Y340D Y341D): -9%
inhibition at 1 µM (HIPK2): -1%
inhibition at 1 µM (MAP2K6 (MKK6)): 3%
inhibition at 1 µM (DYRK4): 0%
inhibition at 1 µM (TYRO3 (RSE)): -5%
inhibition at 1 µM (FGR): 11%
inhibition at 1 µM (RET Y791F): 5%
inhibition at 1 µM (EEF2K): 1%
inhibition at 1 µM (KIT): -2%
inhibition at 1 µM (AMPK (A2/B1/G2)): 1%
inhibition at 1 µM (CDK2/cyclin A): 0%
inhibition at 1 µM [1]: 2%
inhibition at 1 µM (YES1): -6%
inhibition at 1 µM (SRC): 14%
inhibition at 1 µM (SRPK1): 1%
inhibition at 1 µM (JAK3): 1%
inhibition at 1 µM (DAPK3 (ZIPK)): 2%
inhibition at 1 µM (CDKL5): 4%
inhibition at 1 µM (PEAK1): 1%
inhibition at 1 µM (CAMK1D (CaMKI delta)): -26%
